Test results taken from US20070049564A1 (Wyeth, priority 2005, published 2007).
Values after ≈ are worked out from the molar mass of the structure shown. Like-named read-outs stand apart in the source and are kept apart here.

Assays:
[1] = tested on: E. coli GC 2235; experiment: MIC, broth microdilution; conditions: Escherichia coli
[2] = tested on: S. typhimurium GC 2172; experiment: MIC, broth microdilution; conditions: Salmonella enterica, TYPHIMURIUM
Method: Antimicrobial susceptibility testing. The in vitro activities of the antibiotics are determined by the broth microdilution method as recommended by the National Committee for Clinical Laboratory Standards (NCCLS) (1). Mueller-Hinton II broth (MHBII)(BBL Cockeysville, Md.) is the medium employed in the testing procedures. Microtiter plates containing serial dilutions of each antimicrobial agent are inoculated with each organism to yield the appropriate density (10^5 CFU/ml) in a 100 μl final volume. The plates are incubated for 18-22 hours at 35° C. in ambient air.
Representative compounds were first incubated in mouse serum for an hour prior to the in vitro testing against a panel of selected gram-positive and gram-negative bacteria strains. All compounds were also pre-incubated in water for an hour prior to testing as control.

[3] = tested on: E. coli GC 2270; experiment: MIC, broth microdilution; conditions: Escherichia coli
[4] = tested on: S. aureus GC 6469; experiment: MIC, broth microdilution; conditions: Staphylococcus aureus
[5] = tested on: S. aureus GC 6467; experiment: MIC, broth microdilution; conditions: Staphylococcus aureus
[6] = tested on: E. coli GC 2233; experiment: MIC, broth microdilution; conditions: Escherichia coli
[7] = tested on: c. albicans GC 3066; experiment: MIC, broth microdilution
[8] = tested on: E. coli GC 4560; experiment: MIC, broth microdilution; conditions: Escherichia coli
[9] = tested on: Staph.; experiment: Range of MIC for Staph. strains, including MRSA; conditions: Staphylococcus aureus
[10] = tested on: S. aureus GC 2216; experiment: MIC, broth microdilution; conditions: Staphylococcus aureus
[11] = tested on: E. faecium GC 4556; experiment: MIC, broth microdilution; conditions: Enterococcus faecium
[12] = tested on: S. aureus GC 6466; experiment: MIC, broth microdilution; conditions: Staphylococcus aureus
[13] = tested on: E. faecalis GC 2242; experiment: MIC, broth microdilution; conditions: Enterococcus faecalis
[14] = tested on: E. coli GC 6465; experiment: MIC, broth microdilution; conditions: Escherichia coli
[15] = tested on: E. coli GC 2231; experiment: MIC, broth microdilution; conditions: Escherichia coli
[16] = tested on: S. aureus GC 4536; experiment: MIC, broth microdilution; conditions: Staphylococcus aureus
[17] = tested on: E. faecium GC 2243; experiment: MIC, broth microdilution; conditions: Enterococcus faecium
[18] = tested on: E. coli GC 1073; experiment: MIC, broth microdilution; conditions: Escherichia coli
[19] = tested on: S. aureus GC 1079; experiment: MIC, broth microdilution; conditions: Staphylococcus aureus
[20] = tested on: E. coli; experiment: Range of MIC for E. coli strains; conditions: Escherichia coli

CN(C)c1cc(NC(=O)CN(C(=O)OCOC(=O)C2CCC2)C(C)(C)C)c(O)c2c1C[C@H]1C[C@H]3[C@H](N(C)C)C(O)=C(C(N)=O)C(=O)[C@@]3(O)C(O)=C1C2=O [Example 62, ({[(2-{[(5aR,6aS,7S,10aS)-9-(aminocarbonyl)-4,7-bis(dimethylamino)-1,8,10a,11-tetrahydroxy-10,12-dioxo-5,5a,6,6a,7,10,10a,12-octahydrotetracen-2-yl]amino}-2-oxoethyl)(tert-butyl)amino]carbonyl}oxy)methyl cyclobutanecarboxylate]
MIC ([1]; GC2235, pre-incubation in human serum): 2 µg/mL (≈ 2.7 µM)
MIC ([1]; GC2235, pre-incubation in mouse serum): 0.5 µg/mL (≈ 0.674 µM)
MIC ([1]; GC2235, pre-incubation in water): 4 µg/mL (≈ 5.39 µM)
MIC ([2]; pre-incubation in human serum): 16 µg/mL (≈ 21.6 µM)
MIC ([2]; pre-incubation in mouse serum): 2 µg/mL (≈ 2.7 µM)
MIC ([2]; pre-incubation in water): > 64 µg/mL
MIC ([3]; GC2270, pre-incubation in human serum): 2 µg/mL (≈ 2.7 µM)
MIC ([3]; GC2270, pre-incubation in mouse serum): 0.5 µg/mL (≈ 0.674 µM)
MIC ([3]; GC2270, pre-incubation in water): 8 µg/mL (≈ 10.8 µM)
MIC ([4]; GC6469, pre-incubation in human serum): 0.5 µg/mL (≈ 0.674 µM)
MIC ([4]; GC6469, pre-incubation in mouse serum): 1 µg/mL (≈ 1.35 µM)
MIC ([4]; GC6469, pre-incubation in water): 1 µg/mL (≈ 1.35 µM)
MIC ([5]; GC6467, pre-incubation in human serum): 0.5 µg/mL (≈ 0.674 µM)
MIC ([5]; GC6467, pre-incubation in mouse serum): 1 µg/mL (≈ 1.35 µM)
MIC ([5]; GC6467, pre-incubation in water): 0.5 µg/mL (≈ 0.674 µM)
MIC ([6]; GC2233, pre-incubation in human serum): 4 µg/mL (≈ 5.39 µM)
MIC ([6]; GC2233, pre-incubation in mouse serum): 2 µg/mL (≈ 2.7 µM)
MIC ([6]; GC2233, pre-incubation in water): 8 µg/mL (≈ 10.8 µM)
MIC ([7]; Candida albicans, GC3066): > 64 µg/mL
MIC ([7]; pre-incubation in human serum): >64 UG/ML
MIC ([7]; pre-incubation in mouse serum): >64 UG/ML
MIC ([8]; GC4560, pre-incubation in human serum): 0.5 µg/mL (≈ 0.674 µM)
MIC ([8]; GC4560, pre-incubation in mouse serum): 0.25 µg/mL (≈ 0.337 µM)
MIC ([8]; GC4560, pre-incubation in water): 0.5 µg/mL (≈ 0.674 µM)
MIC ([9]; MRSA, read-out: Range of MIC, Staph (Mouse Serum)): 0.5 to 1 µg/mL (≈ 0.674 to 1.35 µM)
MIC ([9]; read-out: Minimum inhibitory concentration (MIC), Staph (Human Serum)): 0.5 µg/mL (≈ 0.674 µM)
MIC ([9]; read-out: Minimum inhibitory concentration (MIC), Staph (Water)): 0.25 to 1 µg/mL (≈ 0.337 to 1.35 µM)
MIC ([10]; GC2216, pre-incubation in human serum): 0.5 µg/mL (≈ 0.674 µM)
MIC ([10]; GC2216, pre-incubation in mouse serum): 0.5 µg/mL (≈ 0.674 µM)
MIC ([10]; GC2216, pre-incubation in water): 0.5 µg/mL (≈ 0.674 µM)
MIC ([11]; GC4556, pre-incubation in human serum): 1 µg/mL (≈ 1.35 µM)
MIC ([11]; GC4556, pre-incubation in mouse serum): 1 µg/mL (≈ 1.35 µM)
MIC ([11]; GC4556, pre-incubation in water): 1 µg/mL (≈ 1.35 µM)
MIC ([12]; GC6466, pre-incubation in human serum): 0.5 µg/mL (≈ 0.674 µM)
MIC ([12]; GC6466, pre-incubation in mouse serum): 0.5 µg/mL (≈ 0.674 µM)
MIC ([12]; GC6466, pre-incubation in water): 0.25 µg/mL (≈ 0.337 µM)
MIC ([13]; GC2242, pre-incubation in human serum): 0.5 µg/mL (≈ 0.674 µM)
MIC ([13]; GC2242, pre-incubation in mouse serum): 0.5 µg/mL (≈ 0.674 µM)
MIC ([13]; GC2242, pre-incubation in water): 0.5 µg/mL (≈ 0.674 µM)
MIC ([14]; GC6465, pre-incubation in human serum): 8 µg/mL (≈ 10.8 µM)
MIC ([14]; GC6465, pre-incubation in mouse serum): 2 µg/mL (≈ 2.7 µM)
MIC ([14]; GC6465, pre-incubation in water): > 64 µg/mL
MIC ([15]; GC2231, pre-incubation in human serum): 4 µg/mL (≈ 5.39 µM)
MIC ([15]; GC2231, pre-incubation in mouse serum): 0.5 µg/mL (≈ 0.674 µM)
MIC ([15]; GC2231, pre-incubation in water): 8 µg/mL (≈ 10.8 µM)
MIC ([16]; GC4536, pre-incubation in human serum): 0.5 µg/mL (≈ 0.674 µM)
MIC ([16]; GC4536, pre-incubation in mouse serum): 0.5 µg/mL (≈ 0.674 µM)
MIC ([16]; GC4536, pre-incubation in water): 0.5 µg/mL (≈ 0.674 µM)
MIC ([17]; GC2243, pre-incubation in human serum): 0.5 µg/mL (≈ 0.674 µM)
MIC ([17]; GC2243, pre-incubation in mouse serum): 0.5 µg/mL (≈ 0.674 µM)
MIC ([17]; GC2243, pre-incubation in water): 0.5 µg/mL (≈ 0.674 µM)
MIC ([18]; GC1073, pre-incubation in human serum): 4 µg/mL (≈ 5.39 µM)
MIC ([18]; GC1073, pre-incubation in mouse serum): 0.5 µg/mL (≈ 0.674 µM)
MIC ([18]; GC1073, pre-incubation in water): 16 µg/mL (≈ 21.6 µM)
MIC ([19]; GC1079, pre-incubation in human serum): 0.5 µg/mL (≈ 0.674 µM)
MIC ([19]; GC1079, pre-incubation in mouse serum): 1 µg/mL (≈ 1.35 µM)
MIC ([19]; GC1079, pre-incubation in water): 0.5 µg/mL (≈ 0.674 µM)
MIC ([20]; 20 h, read-out: Range of MIC, E. coli (Mouse Serum)): 0.5 to 2 µg/mL (≈ 0.674 to 2.7 µM)
MIC ([20]; read-out: Minimum inhibitory concentration (MIC), E. coli (Human Serum)): 2 to 8 µg/mL (≈ 2.7 to 10.8 µM)
